{
  "source": "patent US9486434B2",
  "about": "“Method for delivery and use of isothiocyanates for prophylaxis and/or therapy of bladder cancer” (Health Research Inc., priority 2010, dated 2016)",
  "key": {"[1]": {"tested_on": "human bladder cancer UM-UC-3 cells", "assay": "MTT cell growth and proliferation assay, UM-UC-3 cells", "assay_type": "cell-based", "conditions": "Homo sapiens, read-out: IC50, inhibition of cell proliferation", "description": "(§1) FIG. 3. The effect of AITC on cell survival and proliferation. AITC was evaluated at the indicated concentrations in human bladder cancer UM-UC-3 cells, rat bladder cancer AY-27 cells, and normal human bladder epithelial cells (HUC). A. Cell growth inhibition, measured by MTT assay, 72-h AITC treatment. IC50 was calculated from nonlinear regression curve fit. B. Cell cycle arrest (□, subG1; ? , G1; ? , 5; ▪, G2/M), measured by flow cytometry, 24 h AITC treatment. C. Apoptosis induction, measured by an ELISA assay, 24 h AITC treatment. Mean±SE, n=3-6), *P<0.05.\n(§2) FIG. 10. The effect of NAC-AITC on cell survival and proliferation. NAC-AITC was evaluated in both UM-UC-3 cells and AY-27 cells. (A) Chemical structures of AITC and NAC-AITC. (B) Cell growth and proliferation, measured by 3-([…])-2,5-diphenyltetrazolium bromide assay, 72 h treatment with AITC or NAC-AITC at indicated concentrations. IC50 was calculated from the non-linear regression curve fit. (C) Apoptosis, measured by an enzyme-linked immunosorbent assay, 24 h NAC-AITC treatment at 15 µM. (D) Cell cycle (open bars, G1; shaded bars, S; closed bars, G2/M), measured by flow cytometry, 24 h NAC-AITC treatment at 15 μM. *P<, 0.005, compared with control.\nAssays for cell proliferation, cell cycle arrest and apoptosis. To determine the antiproliferative activity of NAC-AITC, AY-27 cells were grown in 96-well microtiter plates ([…] with 0.15 ml medium per well) for 24 h and then grown for 72 h in fresh medium (0.2 ml/well) containing a series of concentrations of NAC-AITC or solvent. Cell growth was measured at the end of treatment using the 3-([…])-2,5-diphenyltetrazolium bromide assay, from which the half maximal inhibitory concentration (IC50) of NAC-AITC was calculated. AITC was also evaluated for comparison."}, "UM-UC-3 cells": {"tested_on": "UM-UC-3 cells", "assay": "Cell cycle arrest by flow cytometry, UM-UC-3 cells", "assay_type": "cell-based, human", "conditions": "24 h", "description": "as §1\nFIG. 4. Effect of AITC on mitosis, tubulin expression and apoptosis in human bladder cancer UM-UC-3 cells. Cells were treated with vehicle or AITC for 24 h (each numerical value is mean±SD). A. Flow cytometry analysis for cell cycle arrest. B. Wright-Giemsa staining for counting mitotic figures. Arrows point to cells in mitosis or mitotic catastrophe. C. Immunofluorescent staining of microtubules (green color) and DNA staining with DAPI (blue color). D. Western blotting of tubulins (GAPDH as a loading control). E. Loss of mitochondrial transmembrane potential (Δψm) measured by flow cytometry. […] G. Apoptotic cells (TUNEL cells) measured by flow cytometry. […]\nas §2, with “The effect of NAC-AITC on cell survival and proliferation.” left out, “(A) Chemical structures of AITC and NAC-AITC.” left out\nThe effect of NAC-AITC on cell cycle progression was measured by flow cytometry as described previously. […] Induction of apoptosis by NAC-AITC was measured using the Cell Death Detection ELISA^plus kit (Roche Diagnostics, Indianapolis, Ind.), following the manufacturer's instruction. […]"}, "AY-27 cells [2]": {"tested_on": "AY-27 cells", "assay": "Cell cycle arrest by flow cytometry, AY-27 cells", "assay_type": "cell-based, rat", "conditions": "24 h", "description": "as §1, §2\nThe effect of NAC-AITC on cell cycle progression was measured by flow cytometry as described previously. Briefly, 1.5×10^6 AY-27 cells were grown in each 10-cm plate with 10 ml medium for 24 h and then treated with NAC-AITC or solvent for 24 h before analysis. Induction of apoptosis by NAC-AITC was measured using the Cell Death Detection ELISA^plus kit (Roche Diagnostics, Indianapolis, Ind.), following the manufacturer's instruction. […] At the end of treatment, the cells were treated with lysis buffer, and after a low-speed centrifugation, a portion of the supernatant fraction was used for spectroscopic measurement (expressed as A405-490 nm) of cytoplasmic levels of histone-associated mononucleosomes or oligonucleosomes by an enzyme-linked immunosorbent assay. […]"}, "AY-27 cells [3]": {"tested_on": "AY-27 cells", "assay": "Apoptosis induction ELISA (histone-associated DNA), AY-27 cells", "assay_type": "cell-based, rat", "conditions": "24 h", "description": "as §1, §2\nThe effect of NAC-AITC on cell cycle progression was measured by flow cytometry as described previously. […]"}, "[4]": {"conditions": "AITC 7.5-15 microM, control 9.9-11.5%"}},
  "note": "Read-outs that look alike come from different tables or passages of the source.",
  "data": [
    {"smiles": "C=CCN=C=S", "note": "[AITC, allyl isothiocyanate]", "values": [
      {"measurement": "IC50", "setting": "[1]; UMUC3, 72 h", "value": 2.7, "unit": "µM"},
      {"measurement": "cells in G2/M phase", "setting": "UM-UC-3 cells; [4]", "value": "up to 72%"},
      {"measurement": "increase in subG1 population", "setting": "UM-UC-3 cells; AITC", "value": "up to 6.5 fold"},
      {"measurement": "cells in G2/M phase", "setting": "AY-27 cells [2]; [4]", "value": "≤ 49", "unit": "%"},
      {"measurement": "increase in subG1 population", "setting": "AY-27 cells [2]; AITC", "value": "≤ 7.8", "unit": "fold"},
      {"measurement": "increase in cytoplasmic levels of histone-associated DNA", "setting": "AY-27 cells [3]; AITC", "value": "≤ 5.2", "unit": "fold"}
    ]},
    {"smiles": "C=CCNC(=S)SC[C@H](NC(C)=O)C(=O)O", "note": "[NAC-AITC, N-acetyl-S—(N-allylthiocarbamoyl)cysteine]", "values": [
      {"measurement": "IC50", "setting": "[1]; UMUC3, Example 9, 72 h treatment", "value": 7.4, "unit": "µM"},
      {"measurement": "cells in G2/M phase", "setting": "UM-UC-3 cells; NAC-AITC 15 µM, control 11-12%", "value": 55, "unit": "%"},
      {"measurement": "cells in G2/M phase", "setting": "AY-27 cells [2]; NAC-AITC 15 µM, control 11-12%", "value": 45, "unit": "%"},
      {"measurement": "increase in apoptotic activity", "setting": "AY-27 cells [3]; 15 μM", "value": 10.6, "unit": "fold"}
    ]}
  ]
}
